According to PubChem BioAssay AID1407 (Johns Hopkins Ion Channel Center, 2008):

Molecular target: Potassium voltage-gated channel subfamily KQT member 2 (Rattus norvegicus) (UniProt O88943)
Experiment: PubChem AID 1407
Settings: KCNQ2-expressing cells, rubidium efflux, at 10 µM, stronger effect = higher value

Potassium voltage-gated channel subfamily KQT member 2 (Rattus norvegicus), sequence (O88943 whole entry, looked up): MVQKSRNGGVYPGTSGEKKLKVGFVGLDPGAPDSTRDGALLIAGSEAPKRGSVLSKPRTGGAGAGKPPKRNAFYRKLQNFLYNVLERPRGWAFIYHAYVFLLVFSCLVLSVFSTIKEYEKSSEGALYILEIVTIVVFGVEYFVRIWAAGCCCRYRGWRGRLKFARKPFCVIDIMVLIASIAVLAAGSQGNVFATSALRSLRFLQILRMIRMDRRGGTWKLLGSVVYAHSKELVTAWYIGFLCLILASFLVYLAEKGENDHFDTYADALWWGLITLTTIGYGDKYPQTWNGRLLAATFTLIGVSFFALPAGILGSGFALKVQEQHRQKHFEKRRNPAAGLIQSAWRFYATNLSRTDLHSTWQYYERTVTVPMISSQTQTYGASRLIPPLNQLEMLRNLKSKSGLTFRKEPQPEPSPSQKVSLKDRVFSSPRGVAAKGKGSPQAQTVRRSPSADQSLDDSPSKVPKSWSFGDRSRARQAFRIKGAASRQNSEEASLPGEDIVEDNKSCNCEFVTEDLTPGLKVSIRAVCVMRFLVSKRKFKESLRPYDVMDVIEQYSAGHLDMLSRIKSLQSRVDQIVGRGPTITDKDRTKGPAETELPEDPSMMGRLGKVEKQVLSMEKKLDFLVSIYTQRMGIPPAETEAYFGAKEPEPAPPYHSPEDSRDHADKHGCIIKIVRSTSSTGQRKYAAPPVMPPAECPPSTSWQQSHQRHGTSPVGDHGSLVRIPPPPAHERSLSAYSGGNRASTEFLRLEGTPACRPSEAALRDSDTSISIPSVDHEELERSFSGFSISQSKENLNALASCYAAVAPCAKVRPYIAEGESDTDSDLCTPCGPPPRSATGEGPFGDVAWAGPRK

- activity increase: 23.1%
- efflux (measured here: rubidium efflux percent): 85.5%
SMILES: O[N+]1=CC=CCC1=S.On1ccccc1=S.[Zn]
